The source of these data is US9468669B2, “Methods to treat dysregulated blood glucose disorders” (REGENTS OF THE UNIVERSITY OF MINNESOTA, priority 2013, dated 2016).

Data set [1] has as its system human islets. The data set can be described thus: Glucose stimulated insulin release (GSIR). The data set is classed as cell-based. To be noted: 100 uM, glucose series. As to the method: Living islets were isolated from the pancreas of a consenting organ donor via enzymatic digestion and isopycnic density gradient purification as previously described (Balamurugan, A N., et al., (2014) The Islets of Langerhans, 2nd Edition, 1-25). This isolation was performed as a standard procedure by an experienced team at the Schulze Diabetes Institute of the University of Minnesota under GMP conditions. A portion of the total number of isolated islets were granted for these experiments after quality control testing and quantification. Islets were maintained in culture in supplemented Prodo media with a 5.5 mM glucose concentration in a T-flask at 37° C., 5% CO2. […]
After washing to remove culture media, approximate aliquots of 30 islet equivalents (IEQ, islet numbers normalized to an average size of 150 microns) were added to cell strainers immersed in 1.0 mL of 0-glucose solution. […] All well contents, both time 0 and post-stimulation samples, were stored at −80° C. until they could be assessed for insulin content via sandwich ELISA from a standard commercial mouse insulin ELISA kit. Insulin content, post-stimulation concentration minus the time 0 concentration, was normalized to the actual IEQ of each well, which was determined by Pico-green DNA assessment (Papas, K. K., et al., (2007), Am J Transplant 7, 707-13) of cell strainer contents recovered at the end of the final incubation. […]

Data set [2] relates to human islets. Briefly: Human islet viability (acridine orange / propidium iodide staining). To be noted: for islet viability: 100 uM. The data set is classed as cell-based. The method, then:
(§1) Living islets were isolated from the pancreas of a consenting organ donor via enzymatic digestion and isopycnic density gradient purification as previously described (Balamurugan, A N., et al., (2014) The Islets of Langerhans, 2nd Edition, 1-25). This isolation was performed as a standard procedure by an experienced team at the Schulze Diabetes Institute of the University of Minnesota under GMP conditions. A portion of the total number of isolated islets were granted for these experiments after quality control testing and quantification. Islets were maintained in culture in supplemented Prodo media with a 5.5 mM glucose concentration in a T-flask at 37° C., 5% CO2. Half-volume media changes were performed every 3′^d day.
After conditional incubations (described below), islets were placed in standard media for 2-8 hrs before viability assessment. The viability of islets was assessed by double staining an aliquot of ˜25 islets with acridine orange (stains living cells) and propidium iodide (stains necrotic or apoptotic cells) (Bank, H. L., (1988) In Vitro Cell Dev Biol 24, 266-73). Each islet in the sample was evaluated under a fluorescent microscope and assigned a value for the % of live cells present and those numbers averaged for that sample. 3× samples per condition were assayed each day for 3 consecutive days and on one day in a follow-up experiment 1 week later. Prior to staining, aliquots were incubated for 60 minutes (FIG. 12, n=2 days) or 90 minutes (FIG. 13, n=2 days) in each solution type used in the GSIR incubations in addition to 100 uM concentrations of D-serine, NMDA or D-serine+NMDA alone (i.e. in 0 glucose). […] On the 3rd day and in a subsequent follow-up experiment, islets were incubated for 90 minutes in the same solutions. In this case, viability was decreased only under those conditions with both the maximum glucose concentration (28 mM) and the addition of NMDA and/or D-serine with the most dramatic loss of viable islet cells (down to 81.1±1.1%) observed in the 28 mM glucose+100 uM NMDA+100 uM D-serine condition (FIG. 13).

In data set [3] the test system is blood glucose. The data set can be described thus: Chronic D-serine drinking, fasted blood glucose, body weight and consumption. The data set is classed as in vivo, mice of the C57 strain. The method, then:
Mice were fasted for 4-6 hours. The tails were wiped with ethanol and allowed to dry. For a first time test, the tip of the tail was removed with a scissors. For subsequent tests, a needle was used to puncture the tail vein. The first drop of blood was wiped away and then the second drop was placed on a glucometer test strip. A second test was administered immediately and most scores were an average of the two readings. If there was more than a 100 unit discrepancy between the two readings, a third reading was taken and the reported value was an average of the three. Eight adult male mice of the C57 strain were tested in a chronic administration model. Mice were housed 2 per cage, with each cage outfitted with 2 special drinking tubes (50 mL conical+stopper with sipper tube) to minimize the impact of any problems with a single tube. Two cages of mice drank tap water and two cages of mice drank a D-serine solution (12.6 mg/ml in tap water), with solutions replaced every other day. Every other day, the food and drinking bottles were weighed to determine cage-wide consumptive behaviors and the mice were individually weighed. At specified intervals, mice were also tested for core body temperature by rectal probe and for 4-hours fasted blood glucose. All mice started with a week of water drinking. […] After one week, two cages (4 mice) were switched to D-serine solution. […] After this measure, all mice were again switched back to water. […] Both acute weight loss and increased drinking are prominent symptoms of the onset of diabetes.

A short description of data set [4]: Plasma D-serine after acute i.p. administration (capillary electrophoresis). The data set is classed as in vivo, mice. To be noted: 2.7 g/kg i.p., 35 and 55 minutes after injection; ethanol 3 g/kg i.p. 15 min after D-serine. The method, then:
The data from FIG. 3 serves as an example of a concentration reference value subject to the time frame and administration technique of the acute hypoglycemia experiments described in FIG. 1. A 20 uL blood sample was collected from the facial vein of mice prior to any treatment (time 0) and 20 and 40 minute intervals after an i.p. injection of ethanol (3 g/kg). A pre-treatment injection of saline (n=9) or D-serine (2.7 g/kg, i.p., n=9) was administered 15 minutes before ethanol such that the reported values also correspond to time 35 and 55 minutes after the pre-injection. These blood samples were assayed for D-serine using capillary electrophoresis, as described in the publication (Lockridge, 2012). Basal levels of plasma D-serine were ˜20 uM with post-injection values rising into the […].

Data set [5] relates to blood glucose. The data set can be described thus: Acute D-serine injection, fasted blood glucose by glucometer. The data set is classed as in vivo, mice of the ddY strain. The note with it: 2.7 g/kg i.p., 6 h fasted. The method, then:
Mice were fasted for 4-6 hours. The tails were wiped with ethanol and allowed to dry. For a first time test, the tip of the tail was removed with a scissors. For subsequent tests, a needle was used to puncture the tail vein. The first drop of blood was wiped away and then the second drop was placed on a glucometer test strip. A second test was administered immediately and most scores were an average of the two readings. If there was more than a 100 unit discrepancy between the two readings, a third reading was taken and the reported value was an average of the three.
Four adult male mice of the ddY strain were fasted for 6 hours before testing. A blood glucose reading from each mouse was determined at the start (time 0). The mice were weighed and the average weight was used with an injection volume of 0.3 mL to calculate the concentration of D-serine to dissolve into saline. The dose, 2.7 g/kg, was picked based on previously published behavior studies in which the intraperitoneal dose was the most reliable in inducing a mouse behavior response during pre-pulse startle inhibition (Kanahara, N., et al., (2008), Psychopharmacology, 198, 363-374) and acute ethanol sedation (Lockridge, A., et al., (2012), Alcohol, 46:389-400). After time 0 testing, each mouse received either D-serine or saline (alternating by cage) at 5 minute intervals. Blood glucose readings were taken at 15, 30, 60 and 120 minutes after each mouse's initial injection. The data presented is the average blood glucose (mg/dL), determined by glucometer as previously described (FIG. 1). Each data point is the average of the two mice with the same treatment condition, while the standard error bars indicate the degree of individual variability between subjects. The saline injected control mice (black) maintained a steady glucose level (70-80% of baseline) throughout the testing period.

Data set [6] in a line: Plasma D-serine during chronic, sustained drinking (capillary electrophoresis). The data set is classed as in vivo, mice. The note with it: 12.6 mg/mL drinking solution. From the text:
The data from FIG. 4 were generated from an unpublished study of the impacts of D-serine on ethanol drinking. […] Blood was collected from the facial vein and assayed via capillary electrophoresis as described above after mice (n=2-4 per condition as shown in the x-axis) had been presented with a choice of water vs. D-serine (or ethanol) drinking solution for 2 weeks and then 2 weeks of exclusively drinking treated solution according to their indicated treatment category.

The nature of data set [7]: Core body temperature by rectal probe during chronic D-serine drinking. The data set is classed as in vivo, mice. The note with it: throughout the chronic D-serine drinking experiment. The method, then: Eight adult male mice of the C57 strain were tested in a chronic administration model. Mice were housed 2 per cage, with each cage outfitted with 2 special drinking tubes (50 mL conical+stopper with sipper tube) to minimize the impact of any problems with a single tube. Two cages of mice drank tap water and two cages of mice drank a D-serine solution (12.6 mg/ml in tap water), with solutions replaced every other day. Every other day, the food and drinking bottles were weighed to determine cage-wide consumptive behaviors and the mice were individually weighed. At specified intervals, mice were also tested for core body temperature by rectal probe and for 4-hours fasted blood glucose. All mice started with a week of water drinking. […] After one week, two cages (4 mice) were switched to D-serine solution. […] After this measure, all mice were again switched back to water. […] Both acute weight loss and increased drinking are prominent symptoms of the onset of diabetes.
The hypothalamus is known to regulate metabolism through its influence on circadian rhythm, hunger, thirst, body temperature and glucose utilization among others. […] Core body temperature, determined by rectal thermometer, was stable throughout the chronic D-serine drinking experiment (FIG. 8A) and between wildtype and DAO mutant mice (FIG. 8B).

The subject of data set [8] is human islets. The data set can be described thus: Sustained high concentration D-serine on human islet survival (1 week culture). The data set is classed as cell-based. To be noted: 100 uM NMDA and 500 uM D-serine. As to the method:
as §1
After conditional incubations (described below), islets were placed in standard media for 2-8 hrs before viability assessment. The viability of islets was assessed by double staining an aliquot of ˜25 islets with acridine orange (stains living cells) and propidium iodide (stains necrotic or apoptotic cells) (Bank, H. L., (1988) In Vitro Cell Dev Biol 24, 266-73). Each islet in the sample was evaluated under a fluorescent microscope and assigned a value for the % of live cells present and those numbers averaged for that sample. 3× samples per condition were assayed each day for 3 consecutive days and on one day in a follow-up experiment 1 week later. […]

[9] abbreviates: 12.6 mg/ml in drinking water, first week of treatment.

`CN[C@H](CC(=O)O)C(=O)O` [NMDA, N-methyl-D-aspartate]: the “effect on insulin secretion, supplement alone” value in data set [1] is given as “no effect on 2 out of 3 days tested”. Moreover, the islet viability in data set [2] (60 minutes incubation, all GSIR solution types and 0 glucose) was roughly 100%. Also, in data set [2] (90 minutes incubation, 28 mM glucose, 100 uM supplement), the “islet viability (viable islet cells)” value is on record as “decreased”.
For `N[C@H](CO)C(=O)O` [D-serine], the “effect on insulin secretion, supplement alone” value in data set [1] is listed as “no effect”. Further, the solution drinking result in data set [3] (12.6 mg/ml in drinking water) was “increased”. The blood sugar in data set [3] (12.6 mg/ml in drinking water, 16 days of drinking, 4-hours fasted) was 170 ± 9 mg/dL; in data set [3] (12.6 mg/ml in drinking water, after 7 days of drinking, 4-hours fasted) it was 149 ± 12 mg/dL; in data set [5] (15 and 30 minutes after injection) it was “stable”. Besides, the body weight entry in data set [3] (setting [9]) was “weight loss”. In data set [3] (setting [9]), the eating result is “reduced eating”. In addition, the blood glucose entry in data set [3] (12.6 mg/ml in drinking water, two days after the switch, 4-hours fasted) is “still at baseline levels”. In addition, in data set [3] (after a week of water drinking following 16 days of D-serine), the “blood glucose after switch back to water” value is recorded as “recovered back to baseline glucose levels”. In addition, the “plasma D-serine, post-injection” value in data set [4] is on record as roughly 12 mM. Besides, the “blood sugar, % of baseline” value is 52 % of baseline in data set [5] (60 minutes after injection) and 36 % of baseline in data set [5] (120 minutes after injection). Besides, in data set [6] (versus clinical trials (Emilov 2013)), the “plasma level relative to human patients undergoing D-serine oral therapy” value was 2-3 times higher. For the same compound, the concentration at 4 weeks in data set [6] (mouse, plasma, oral, 2 weeks choice then 2 weeks exclusive drinking, read-out: basal D-serine plasma level) lay in the range of 400 to 600 µM. In data set [7], the core body temperature result is reported as “stable”. Also, in data set [8], the “average viability, % viable cells per islet” value is recorded as 84±2.4%. In addition, the “islets recovered, average pool IEQ” value in data set [8] (Pico-green DNA assay) was found to be 1137±172 IEQ. In data set [2] (human, 60 min), this compound had an islet viability of roughly 100%.
